In EP1220870B1, “METAL-BINDING COMPOUNDS AND USES THEREFOR” (DMI Biosciences, Inc., priority 1999, dated 2001):
No end group written: not given here.

Columns and labels:
Format in all cases: biochemical
Superoxide radical [1] = assay: Superoxide dismutase (SOD) activity, xanthine oxidase/NBT assay; settings: for SOD activity (inhibition of NBT reduction): xanthine oxidase assay, pH 10.2, 1.2 µM EDTA
Procedure: The SOD activity of copper complexes of the tetrapeptide L-Asp L-Ala L-His L-Lys [SEQ ID NO:1] was assayed. Superoxide radicals were produced using the xanthine oxidase assay of Beauchamp and Fridovich, Anal. Biochem., 44:276-287 (1971). Xanthine oxidase converts xanthine into uric acid, with oxygen acting as an electron acceptor. This causes superoxide radical to be produced. Superoxide radical is able to reduce nitro blue tetrazolium (NBT). Reduced NBT has a λmax of 560 nm. It is known that copper inhibits xanthine oxidase activity (Konstantinova et al., Free Rad. Res. Comms., 12-13:215-220 (1991)), so all experiments containing copper also contained ethylenediaminetetracetic acid (EDTA), a known copper chelator.
To perform the assay for SOD activity, 0.1 mM xanthine (Sigma Chemical Co.), 25 µM NBT (Sigma Chemical Co.), 50 mM sodium carbonate, and 1.2 µM EDTA (Sigma Chemical Co.), were mixed in a cuvette (all final concentrations, final pH 10.2). The reaction was started by the addition of various amounts of a tetrapeptide-copper complex (tetrapeptide/copper ratios of 1:1 and 2:1) and 20 nM xanthine oxidase (Sigma Chemical Co.). The tetrapeptide-copper complex was prepared by mixing the tetrapeptide and copper (as CuCl2) and allowing the mixture to incubate for 15 minutes at room temperature immediately before addition to the cuvette. The samples were read at time 0 and every 60 seconds for five minutes at 560 nm.

xanthine oxidase = biological target: T1, xanthine oxidase (Bos taurus, UniProt P80457); assay: Uric acid production at 295 nm (check for interference with xanthine oxidase activity); settings: concentration of 600 nM; data not shown
T1 construct: purchased Sigma Chemical Co
T1 sequence (P80457 whole entry): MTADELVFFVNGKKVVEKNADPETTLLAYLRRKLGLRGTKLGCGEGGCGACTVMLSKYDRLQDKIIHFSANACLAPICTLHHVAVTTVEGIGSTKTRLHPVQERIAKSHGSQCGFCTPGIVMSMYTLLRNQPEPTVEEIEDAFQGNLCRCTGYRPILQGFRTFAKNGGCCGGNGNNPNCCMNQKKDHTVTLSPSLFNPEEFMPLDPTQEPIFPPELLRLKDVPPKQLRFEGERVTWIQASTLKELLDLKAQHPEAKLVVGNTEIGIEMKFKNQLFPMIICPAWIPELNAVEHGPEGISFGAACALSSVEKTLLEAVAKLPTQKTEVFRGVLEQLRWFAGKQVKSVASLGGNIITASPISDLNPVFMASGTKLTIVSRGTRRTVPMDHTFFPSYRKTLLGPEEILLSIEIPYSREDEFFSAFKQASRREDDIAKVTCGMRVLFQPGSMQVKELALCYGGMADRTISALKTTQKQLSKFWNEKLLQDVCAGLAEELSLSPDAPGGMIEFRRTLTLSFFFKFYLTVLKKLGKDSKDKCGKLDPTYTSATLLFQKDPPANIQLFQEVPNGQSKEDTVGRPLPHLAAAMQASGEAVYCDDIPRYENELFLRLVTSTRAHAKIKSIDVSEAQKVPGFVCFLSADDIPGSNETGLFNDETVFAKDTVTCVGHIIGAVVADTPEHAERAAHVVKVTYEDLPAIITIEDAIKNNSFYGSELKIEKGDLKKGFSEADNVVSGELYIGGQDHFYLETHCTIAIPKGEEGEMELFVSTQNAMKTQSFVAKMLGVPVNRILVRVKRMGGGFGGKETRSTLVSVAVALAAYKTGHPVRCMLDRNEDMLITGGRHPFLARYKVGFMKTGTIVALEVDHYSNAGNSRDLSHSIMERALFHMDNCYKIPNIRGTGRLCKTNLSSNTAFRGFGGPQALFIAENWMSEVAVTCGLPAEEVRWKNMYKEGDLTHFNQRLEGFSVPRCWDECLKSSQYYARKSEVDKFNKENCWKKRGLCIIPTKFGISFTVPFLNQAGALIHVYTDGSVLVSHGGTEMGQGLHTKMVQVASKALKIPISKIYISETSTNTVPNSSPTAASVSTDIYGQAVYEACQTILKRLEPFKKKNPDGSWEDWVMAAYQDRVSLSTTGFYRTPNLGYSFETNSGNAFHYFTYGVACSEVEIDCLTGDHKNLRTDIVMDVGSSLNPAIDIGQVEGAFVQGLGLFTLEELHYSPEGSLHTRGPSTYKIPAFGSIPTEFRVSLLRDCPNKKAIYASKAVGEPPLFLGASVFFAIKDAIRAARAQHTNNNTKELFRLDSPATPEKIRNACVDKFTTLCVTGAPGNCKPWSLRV
Procedure: Athar et al., Biochem. Mol. Biol. Int., 39(4):813-821 (1996); Ciuffi et al., Pharmacol Res., 38(4):279-287 (1998). This assay is similar to the SOD assay, except that NBT is not present. Instead, uric acid is assayed at 295 nm every 60 seconds for 5 minutes. […] Since superoxide is converted to hydrogen peroxide by the complex, this could help to explain why it is not effective at preventing hydroxyl radical production.

Superoxide radical [2] = assay: Superoxide radical production, NBT reduction with copper and ascorbate; settings: 37°C, read at 560 nm at 5, 15, 30 and 60 minutes, maximum decreased for the 1:1 complex
Procedure: Superoxide radical production was measured in solutions containing the 1:1 or 2:1 tetrapeptide-copper complexes. The assay combined techniques from the TBA assay and the xanthine oxidase assay. NBT was added to all test tubes in order to quantitate its reduction by superoxide radical. The samples also contained ascorbate and copper and were incubated at 37°C. At 5,15,30 and 60 minutes, the samples were removed from the incubator and read at 560 nm. In the sample containing the 2:1 tetrapeptide-copper complex, NBT reduction increased over time and reached a maximum at 3 0 minutes.

hydroxyl radicals = assay: Inhibition of hydroxyl radical production, Cu(II)/ascorbic acid deoxyribose TBA assay (Example 10); settings: compound/copper 2:1; for % Inhibition: percent decrease in absorbance compared to buffer alone
Procedure: The ability of the compounds listed above to inhibit the generation of hydroxyl radicals was tested as described in Gutteridge and Wilkins, Biochim. Biophys. Acta, 759:38-41 (1983). Briefly, Cu(II) and ascorbic acid were mixed causing the generation of hydroxyl radicals. Then, deoxyribose was added, and the hydroxyl radicals, if present, attacked the deoxyribose to produce fragments. […]. Thus, absorbance at 532 nm is a measure of the damage to deoxyribose and, therefore, of hydroxyl radical formation.
To perform the assay, CuCl2 in buffer (20 mM KH2PO4 buffer, pH 7.4) and either one of the test compounds in buffer or buffer alone were added to test tubes (final concentration of CuCl2 was 10µM). The test tubes were incubated for 15 minutes at room temperature. Then, 0.5 mM ascorbic acid in buffer and 1.9 mM 2-deoxy-D-ribose in buffer were added to each test tube, and the test tubes were incubated for 1 hour at 37°C. Finally, 1 ml of 1% (w/v) TBA in 50 mM NaOH and 1 ml of concentrated acetic acid were added to each test tube, and the test tubes were incubated in boiling water for 15 minutes. After the test tubes had cooled for 15 minutes, the absorbance at 532 nm was read.

Compound: 1:1 tetrapeptide-copper complex: complex of L-Asp L-Ala L-His L-Lys and copper (as CuCl2), tetrapeptide/copper ratio 1:1 (DAHK; also: copper complex, peptide:Cu 1:1 (as CuCl2); UniProt P02768 25-28, looked up, fragment)
- times less effective than SOD itself, based on IC50 values (Superoxide radical [1]; tetrapeptide/copper ratio 1:1, IC50 = amount that gives 50% inhibition): about 500 times
- SOD activity (inhibition of NBT reduction) (Superoxide radical [1]): true SOD activity
- SOD activity (inhibition of NBT reduction) (Superoxide radical [1]; listed as complex of the tetrapeptide with copper at a ratio of 1:1): have SOD activity
- inhibition of uric acid production (xanthine oxidase): 11%
- time at which NBT reduction reached a maximum (Superoxide radical [2]): 60 min

Compound: 2:1 tetrapeptide-copper complex: complex of L-Asp L-Ala L-His L-Lys and copper (as CuCl2), tetrapeptide/copper ratio 2:1 (DAHK; also: copper complex, peptide:Cu 2:1 (as CuCl2); UniProt P02768 25-28, looked up, fragment)
- SOD activity (inhibition of NBT reduction) (Superoxide radical [1]): no SOD activity

Compound: N[C@@H](Cc1c[nH]cn1)C(=O)O [Histidine, histidine]
- % Inhibition (hydroxyl radicals): about 20%
- % Inhibition (hydroxyl radicals; listed as Histindine): 20.3%
- Absorbance at 532 nm (hydroxyl radicals; second absorbance column (copper only 0.954)): 0.760
